This data set is described as follows: Targeted metabolomics for PCS after L-tyrosine feeding. It is filed as in vivo, mouse. The procedure:
Mice were fed with L-tyrosine in drinking water (100 mg/kg/day) for 14 days, after which faeces were collected. BALF samples were collected after HDM immunization as per FIG. 1. […] Data represent samples from one experiment. All data are presented as mean values+/−SEM.
Mice received water as a control or L-tyrosine (reagent grade, ≥98% Sigma-Aldrich, St. Louis, Mo.) resuspended in drinking water under sterile conditions at the concentration of 100 mg/kg/day or 500 mg/kg/day (based on the assumption of a mouse consuming 4 ml of water daily). All mice received the treatment 2 weeks prior and throughout the experiment. […] Control mice received 200 μl of saline. For experiments employing antibiotic treatment, 3-week old mice were treated with a combination enrofloxacin (10 mg/kg/day) and amoxicillin with clavulanic acid (1 mg/kg/day) for one week, followed by one week of only amoxicillin with clavulanic acid (1 mg/kg/day). Then, mice were then put on L-tyrosine diet in drinking water for two weeks followed by HDM exposure as before. […]
25 μL of plasma samples were extracted with 100 μL of chilled methanol containing internal standard (PCS-d4 at 500 ng/ml plasma concentration), shaken on ice for 30 min and centrifuged at 4° C. for 10 min. […] Peak integration and quantitation were performed using Tracefinder 4.1 application (Thermo Scientific).

Consider `N[C@@H](Cc1ccc(O)cc1)C(=O)O` [L-tyrosine], for which the “PCS concentrations in the faeces” value (L-tyrosine in drinking water 100 mg/kg/day for 14 days) is listed as “increase”. Further, for the setting “L-tyrosine in drinking water 100 mg/kg/day, BALF after HDM immunization”, the “PCS concentrations in the airways (BALF)” value is given as “increase”.
